Measurements taken from ChEMBL document CHEMBL1909588, “Synthesis and in vitro antitubercular evaluation of novel sansanmycin derivatives” (2011).
In brackets after ≈: the same amount, converted by molar mass.

Tested on: Mycobacterium tuberculosis
Experiment: Antitubercular activity against Mycobacterium tuberculosis H37Rv […] by microplate alamar blue assay
Format: functional

CSCCC(NC(=O)NC(Cc1c[nH]c2ccccc12)C(=O)O)C(=O)NC(C(=O)N/C=C1\C[C@@H](O)[C@H](n2ccc(=O)[nH]c2=O)O1)C(C)N(C)C(=O)C(Cc1cccc(O)c1)NS(=O)(=O)c1ccccc1 (stereo not given in full)
MIC: > 16 µg/mL

CSCCC(NC(=O)NC(Cc1c[nH]c2ccccc12)C(=O)O)C(=O)NC(C(=O)N/C=C1\C[C@@H](O)[C@H](n2ccc(=O)[nH]c2=O)O1)C(C)N(C)C(=O)C(Cc1cccc(OC(C)=O)c1)NC(C)=O (stereo not given in full)
MIC: > 16 µg/mL

CCCCCNC(Cc1cccc(O)c1)C(=O)N(C)C(C)C(NC(=O)C(CCSC)NC(=O)NC(Cc1c[nH]c2ccccc12)C(=O)O)C(=O)N/C=C1\C[C@@H](O)[C@H](n2ccc(=O)[nH]c2=O)O1 (stereo not given in full)
MIC: > 16 µg/mL

CO[C@H]1/C=C/O[C@@]2(C)Oc3c(C)c(O)c4c(O)c(c(/C=N/N5CCN(C)CC5)c(O)c4c3C2=O)NC(=O)/C(C)=C\C=C\[C@H](C)[C@H](O)[C@@H](C)[C@@H](O)[C@@H](C)[C@H](OC(C)=O)[C@@H]1C [RIFAMPIN]
MIC: 0.12 µg/mL (≈ 0.146 µM)

CCCCNC(Cc1cccc(O)c1)C(=O)N(C)C(C)C(NC(=O)C(CCSC)NC(=O)NC(Cc1c[nH]c2ccccc12)C(=O)O)C(=O)N/C=C1\C[C@@H](O)[C@H](n2ccc(=O)[nH]c2=O)O1 (stereo not given in full)
MIC: > 16 µg/mL

CSCCC(NC(=O)NC(Cc1c[nH]c2ccccc12)C(=O)O)C(=O)NC(C(=O)N/C=C1\C[C@@H](OC(C)=O)[C@H](n2ccc(=O)[nH]c2=O)O1)C(C)N(C)C(=O)C(Cc1cccc(OC(C)=O)c1)NC(C)=O (stereo not given in full)
MIC: > 16 µg/mL

CSCCC(NC(=O)NC(Cc1c[nH]c2ccccc12)C(=O)O)C(=O)NC(C(=O)N/C=C1\C[C@@H](O)[C@H](n2ccc(=O)[nH]c2=O)O1)C(C)N(C)C(=O)C(Cc1cccc(O)c1)NS(C)(=O)=O (stereo not given in full)
MIC: > 16 µg/mL

CSCCC(NC(=O)NC(Cc1c[nH]c2ccccc12)C(=O)O)C(=O)NC(C(=O)N/C=C1\C[C@@H](O)[C@H](n2ccc(=O)[nH]c2=O)O1)C(C)N(C)C(=O)C(Cc1cccc(O)c1)NC(C)C (stereo not given in full)
MIC: 8 µg/mL (≈ 8.83 µM)

CSCCC(NC(=O)NC(Cc1c[nH]c2ccccc12)C(=O)O)C(=O)NC(C(=O)N/C=C1\C[C@@H](O)[C@H](n2ccc(=O)[nH]c2=O)O1)C(C)N(C)C(=O)C(Cc1cccc(O)c1)N(C)C (stereo not given in full)
MIC: 16 µg/mL (≈ 17.9 µM)

CSCCC(NC(=O)NC(Cc1c[nH]c2ccccc12)C(=O)O)C(=O)NC(C(=O)N/C=C1\C[C@@H](O)[C@H](n2ccc(=O)[nH]c2=O)O1)C(C)N(C)C(=O)C(Cc1cccc(O)c1)NS(=O)(=O)c1ccc(C)cc1 (stereo not given in full)
MIC: > 16 µg/mL

COc1ccc(S(=O)(=O)NC(Cc2cccc(O)c2)C(=O)N(C)C(C)C(NC(=O)C(CCSC)NC(=O)NC(Cc2c[nH]c3ccccc23)C(=O)O)C(=O)N/C=C2\C[C@@H](O)[C@H](n3ccc(=O)[nH]c3=O)O2)cc1 (stereo not given in full)
MIC: > 16 µg/mL

CSCCC(NC(=O)NC(Cc1c[nH]c2ccccc12)C(=O)O)C(=O)NC(C(=O)N/C=C1\C[C@@H](O)[C@H](n2ccc(=O)[nH]c2=O)O1)C(C)N(C)C(=O)C(N)Cc1cccc(O)c1 (stereo not given in full) [SANSANMYCIN A]
MIC: 16 µg/mL (≈ 18.5 µM)

CSCCC(NC(=O)NC(Cc1c[nH]c2ccccc12)C(=O)O)C(=O)NC(C(=O)N/C=C1\C[C@@H](O)[C@H](n2ccc(=O)[nH]c2=O)O1)C(C)N(C)C(=O)C(Cc1cccc(O)c1)NC(=O)c1ccccc1 (stereo not given in full)
MIC: > 16 µg/mL

CCCNC(Cc1cccc(O)c1)C(=O)N(C)C(C)C(NC(=O)C(CCSC)NC(=O)NC(Cc1c[nH]c2ccccc12)C(=O)O)C(=O)N/C=C1\C[C@@H](O)[C@H](n2ccc(=O)[nH]c2=O)O1 (stereo not given in full)
MIC: > 16 µg/mL

NNC(=O)c1ccncc1 [ISONIAZID]
MIC: 0.05 µg/mL (≈ 0.365 µM)

CCOC(=O)NC(Cc1cccc(O)c1)C(=O)N(C)C(C)C(NC(=O)C(CCSC)NC(=O)NC(Cc1c[nH]c2ccccc12)C(=O)O)C(=O)N/C=C1\C[C@@H](O)[C@H](n2ccc(=O)[nH]c2=O)O1 (stereo not given in full)
MIC: > 16 µg/mL

CCNC(Cc1cccc(O)c1)C(=O)N(C)C(C)C(NC(=O)C(CCSC)NC(=O)NC(Cc1c[nH]c2ccccc12)C(=O)O)C(=O)N/C=C1\C[C@@H](O)[C@H](n2ccc(=O)[nH]c2=O)O1 (stereo not given in full)
MIC: > 16 µg/mL

CSCCC(NC(=O)NC(Cc1c[nH]c2ccccc12)C(=O)O)C(=O)NC(C(=O)N/C=C1\C[C@@H](O)[C@H](n2ccc(=O)[nH]c2=O)O1)C(C)N(C)C(=O)C(Cc1cccc(O)c1)NC(=O)CCl (stereo not given in full)
MIC: > 16 µg/mL

COC(=O)NC(Cc1cccc(O)c1)C(=O)N(C)C(C)C(NC(=O)C(CCSC)NC(=O)NC(Cc1c[nH]c2ccccc12)C(=O)O)C(=O)N/C=C1\C[C@@H](O)[C@H](n2ccc(=O)[nH]c2=O)O1 (stereo not given in full)
MIC: > 16 µg/mL

CSCCC(NC(=O)NC(Cc1c[nH]c2ccccc12)C(=O)O)C(=O)NC(C(=O)N/C=C1\C[C@@H](O)[C@H](n2ccc(=O)[nH]c2=O)O1)C(C)N(C)C(=O)C(Cc1cccc(O)c1)NC(=O)OCc1ccccc1 (stereo not given in full)
MIC: > 16 µg/mL
